Broadly, the EC50 is the concentration at which the effect is half-maximal.

The target of experiment [1] is T1, human amylin receptor (hAMYR3) (Homo sapiens, UniProt O60896+P30988).
T1 construct: host or cells: BHK (Baby Hamster Kidney), Hollex-1 cell line further transfected with RAMP3
As to the kind of experiment: Human amylin receptor (hAMYR3) in vitro potency assay, CRE-luciferase reporter in BHK cells. Type of experiment: cell-based. Conditions: BHK hAMYR3/CRE-Luc cells, 3 hours incubation, assay buffer with 1% ovalbumin. The gist of the method: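 BHK cells stably expressing human calcitonin receptor (a) plus RAMP3 and a CRE-luciferase reporter, seeded overnight, then exposed to 7-point 7-fold dilutions (often from ~10 nM) in DMEM/HEPES buffer with 1% ovalbumin for 3 h at 37 °C. Luciferase luminescence read after SteadyLite Plus addition.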
Background: Reporter assays use an easily measured gene product as a stand-in for the process of interest.

Experiment [2] deals with T2, human calcitonin receptor (hCTR) (Homo sapiens, UniProt P30988).
T2 construct: host or cells: BHK (Baby Hamster Kidney), Hollex-1 cell line
T2 sequence (P30988 25-474): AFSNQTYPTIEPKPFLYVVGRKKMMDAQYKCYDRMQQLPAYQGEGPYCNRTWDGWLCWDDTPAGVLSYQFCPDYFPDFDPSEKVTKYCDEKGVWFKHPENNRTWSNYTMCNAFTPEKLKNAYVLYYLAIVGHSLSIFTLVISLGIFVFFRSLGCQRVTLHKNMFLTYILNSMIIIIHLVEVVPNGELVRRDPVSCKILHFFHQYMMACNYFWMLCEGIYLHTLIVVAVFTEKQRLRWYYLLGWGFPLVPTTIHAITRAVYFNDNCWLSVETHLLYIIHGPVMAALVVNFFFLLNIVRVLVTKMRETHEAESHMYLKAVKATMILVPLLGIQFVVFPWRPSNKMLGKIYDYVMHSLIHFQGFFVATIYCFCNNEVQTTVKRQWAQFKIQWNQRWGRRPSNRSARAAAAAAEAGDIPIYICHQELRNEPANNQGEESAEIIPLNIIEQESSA
Nature of the experiment: Human calcitonin receptor (hCTR) in vitro potency assay, CRE-luciferase reporter in BHK cells. Type of experiment: cell-based. As to conditions: BHK hCTR/CRE-Luc cells, 3 hours incubation, assay buffer with 1% ovalbumin; read-out: hCalcR potency, EC50. The essentials: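 BHK cells stably co-expressing human calcitonin receptor and a CRE-luciferase reporter, seeded the day before, were exposed to 7-fold serial dilutions (7 concentrations, often starting near 10 nM) in DMEM/HEPES/1% ovalbumin buffer for 3 h at 37 °C. Luminescence was then read after SteadyLite Plus addition.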

Starred links: 1 amine or outer side, 2 acyl side, 3 side chain; linkers in the order of their positions; H or OH if unused. Residues, ends and D or L forms follow the SMILES beside them. Groups on a side chain read outwards from the residue. *: point of attachment. C20 diacid = O=C(O)CCCCCCCCCCCCCCCCCCC(=O)*; C18 diacid = O=C(O)CCCCCCCCCCCCCCCCC(=O)*; γGlu = O=C(O)[C@H](CCC(=O)[*:2])N[*:1]

T1 sequence (O60896 24-148, one chain of several): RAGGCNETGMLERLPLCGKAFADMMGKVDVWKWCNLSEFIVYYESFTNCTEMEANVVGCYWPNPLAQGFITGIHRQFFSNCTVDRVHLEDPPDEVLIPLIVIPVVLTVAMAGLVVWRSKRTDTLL

Take `CC[C@H](C)[C@H](NC(=O)[C@H](C)NC(=O)CNC(=O)[C@H](Cc1ccccc1)NC(=O)[C@@H]1CCCN1C(=O)[C@H](CC(=O)O)NC(=O)[C@H](CO)NC(=O)[C@H](CO)NC(=O)[C@H](Cc1c[nH]cn1)NC(=O)[C@H](Cc1c[nH]cn1)NC(=O)[C@H](CC(C)C)NC(=O)[C@H](Cc1ccccc1)NC(=O)[C@H](CCC(=O)O)NC(=O)[C@H](C)NC(=O)[C@H](CC(C)C)NC(=O)[C@H](CCCNC(=N)N)NC(=O)[C@H](CCC(N)=O)NC(=O)[C@@H](NC(=O)[C@H](CCC(N)=O)NC(=O)[C@H](C)NC(=O)[C@@H](NC(=O)[C@H](CO)NC(=O)[C@H](CC(C)C)NC(=O)[C@H](Cc1c[nH]cn1)NC(=O)[C@H](CO)NC(=O)[C@H](C)NC(=O)CC[C@H](NC(=O)CCCCCCCCCCCCCCCCC(=O)O)C(=O)O)[C@@H](C)O)[C@@H](C)O)C(=O)N1CCC[C@H]1C(=O)N[C@@H](CO)C(=O)N[C@@H](CO)C(=O)N[C@H](C(=O)N[C@@H](CC(=O)O)C(=O)N[C@H](C(=O)NCC(=O)N1CCC[C@H]1C(=O)N[C@@H](CC(=O)O)C(=O)N[C@H](C(=O)N[C@@H](Cc1ccc(O)cc1)C(N)=O)[C@@H](C)O)C(C)C)[C@@H](C)O` [Compound 36, N^1-[(4S)-4-carboxy-4-(17-carboxyheptadecanoylamino)butanoyl]-[Ala1,Ser2,His3,Leu4,Ser5,Ala7,Gln8,Glu14,His17,Asp21,Pro22,Pro27,Asp31,Pro34,Asp35]-human amylin] ({C18 diacid-γGlu}-ASHLSTAQTQRLAEFLHHSSDPFGAIPSSTDVGPDTY-NH2): the EC50 in experiment [1] is 2.96 pM; in experiment [2] it was 3.22 pM.
For `CC[C@H](C)[C@H](NC(=O)[C@H](C)NC(=O)CNC(=O)[C@H](Cc1ccccc1)NC(=O)[C@@H]1CCCN1C(=O)[C@H](CC(=O)O)NC(=O)[C@H](CO)NC(=O)[C@H](CO)NC(=O)[C@H](Cc1c[nH]cn1)NC(=O)[C@H](Cc1c[nH]cn1)NC(=O)[C@H](CC(C)C)NC(=O)[C@H](Cc1ccccc1)NC(=O)[C@H](CCC(=O)O)NC(=O)[C@H](C)NC(=O)[C@H](CC(C)C)NC(=O)[C@H](CCCNC(=N)N)NC(=O)[C@H](C)NC(=O)[C@@H](NC(=O)[C@H](CCC(N)=O)NC(=O)[C@H](C)NC(=O)[C@@H](NC(=O)[C@H](CO)NC(=O)[C@H](CC(C)C)NC(=O)[C@H](Cc1c[nH]cn1)NC(=O)[C@H](CO)NC(=O)[C@H](C)NC(=O)CC[C@H](NC(=O)CCCCCCCCCCCCCCCCC(=O)O)C(=O)O)[C@@H](C)O)[C@@H](C)O)C(=O)N1CCC[C@H]1C(=O)N[C@@H](CO)C(=O)N[C@@H](CO)C(=O)N[C@H](C(=O)N[C@@H](CC(=O)O)C(=O)N[C@H](C(=O)NCC(=O)N1CCC[C@H]1C(=O)N[C@@H](CC(=O)O)C(=O)N[C@H](C(=O)N[C@@H](Cc1ccc(O)cc1)C(N)=O)[C@@H](C)O)C(C)C)[C@@H](C)O` [Compound 37, N^1-[(4S)-4-carboxy-4-(17-carboxyheptadecanoylamino)butanoyl]-[Ala1,Ser2,His3,Leu4,Ser5,Ala7,Gln8,Ala10,Glu14,His17,Asp21,Pro22,Pro27,Asp31,Pro34,Asp35]-human amylin] ({C18 diacid-γGlu}-ASHLSTAQTARLAEFLHHSSDPFGAIPSSTDVGPDTY-NH2) the same measures were 1.68 pM and 2.16 pM.
The corresponding values for `CC[C@H](C)[C@H](NC(=O)[C@@H]1CCCN1C(=O)CNC(=O)[C@H](Cc1ccccc1)NC(=O)[C@H](CC(N)=O)NC(=O)[C@H](CC(=O)O)NC(=O)[C@H](CO)NC(=O)[C@H](CO)NC(=O)[C@H](Cc1c[nH]cn1)NC(=O)[C@H](Cc1c[nH]cn1)NC(=O)[C@H](CC(C)C)NC(=O)[C@H](Cc1ccccc1)NC(=O)[C@H](CCC(=O)O)NC(=O)[C@H](C)NC(=O)[C@H](CC(C)C)NC(=O)[C@H](CCCNC(=N)N)NC(=O)[C@H](C)NC(=O)[C@@H](NC(=O)[C@H](CCC(N)=O)NC(=O)[C@H](C)NC(=O)[C@@H](NC(=O)[C@H](CO)NC(=O)[C@H](CC(C)C)NC(=O)[C@H](Cc1c[nH]cn1)NC(=O)[C@H](CO)NC(=O)[C@H](C)NC(=O)CC[C@H](NC(=O)CCCCCCCCCCCCCCCCC(=O)O)C(=O)O)[C@@H](C)O)[C@@H](C)O)C(=O)N[C@@H](CC(C)C)C(=O)N1CCC[C@H]1C(=O)N1CCC[C@H]1C(=O)N[C@H](C(=O)N[C@@H](CC(=O)O)C(=O)N[C@H](C(=O)NCC(=O)N[C@@H](CO)C(=O)N[C@@H](CC(N)=O)C(=O)N[C@H](C(=O)N[C@@H](Cc1ccc(O)cc1)C(N)=O)[C@@H](C)O)C(C)C)[C@@H](C)O` [Compound 38, N^1-[(4S)-4-carboxy-4-(17-carboxyheptadecanoylamino)butanoyl]-[Ala1,Ser2,His3,Leu4,Ser5,Ala7,Gln8,Ala10,Glu14,His17,Asp21,Pro25,Pro28,Pro29,Asp31]-human amylin] ({C18 diacid-γGlu}-ASHLSTAQTARLAEFLHHSSDNFGPILPPTDVGSNTY-NH2) are 1.97 pM and 3.15 pM.
The corresponding values for `CC[C@H](C)[C@H](NC(=O)[C@H](C)NC(=O)CNC(=O)[C@H](Cc1ccccc1)NC(=O)[C@@H]1CCCN1C(=O)[C@H](CC(=O)O)NC(=O)[C@H](CO)NC(=O)[C@H](CO)NC(=O)[C@H](Cc1c[nH]cn1)NC(=O)[C@H](Cc1c[nH]cn1)NC(=O)[C@H](CC(C)C)NC(=O)[C@H](Cc1ccccc1)NC(=O)[C@H](CCC(=O)O)NC(=O)[C@H](C)NC(=O)[C@H](CC(C)C)NC(=O)[C@H](CCCNC(=N)N)NC(=O)[C@H](C)NC(=O)[C@@H](NC(=O)[C@H](CCC(N)=O)NC(=O)[C@H](C)NC(=O)[C@@H](NC(=O)[C@H](CO)NC(=O)[C@H](CC(C)C)NC(=O)[C@H](Cc1c[nH]cn1)NC(=O)[C@H](CO)NC(=O)[C@H](C)NC(=O)CC[C@H](NC(=O)CCCCCCCCCCCCCCCCCCC(=O)O)C(=O)O)[C@@H](C)O)[C@@H](C)O)C(=O)N1CCC[C@H]1C(=O)N[C@@H](CO)C(=O)N[C@@H](CO)C(=O)N[C@H](C(=O)N[C@@H](CC(=O)O)C(=O)N[C@H](C(=O)NCC(=O)N1CCC[C@H]1C(=O)N[C@@H](CC(=O)O)C(=O)N[C@H](C(=O)N1CCC[C@H]1C(N)=O)[C@@H](C)O)C(C)C)[C@@H](C)O` [Compound 39, N^1-[(4S)-4-carboxy-4-(19-carboxynonadecanoylamino)butanoyl]-[Ala1,Ser2,His3,Leu4,Ser5,Ala7,Gln8,Ala10,Glu14,His17,Asp21,Pro22,Pro27,Asp31,Pro34,Asp35,Pro37]-human amylin] ({C20 diacid-γGlu}-ASHLSTAQTARLAEFLHHSSDPFGAIPSSTDVGPDTP-NH2) are 1.05 pM and 1.41 pM.
For the molecule `CC[C@H](C)[C@H](NC(=O)[C@H](CCCCNC(=O)CC[C@H](NC(=O)CCCCCCCCCCCCCCCCC(=O)O)C(=O)O)NC(=O)CNC(=O)[C@H](Cc1ccccc1)NC(=O)[C@@H]1CCCN1C(=O)[C@H](CC(=O)O)NC(=O)[C@H](CO)NC(=O)[C@H](CO)NC(=O)[C@H](Cc1c[nH]cn1)NC(=O)[C@H](Cc1c[nH]cn1)NC(=O)[C@H](CC(C)C)NC(=O)[C@H](Cc1ccccc1)NC(=O)[C@H](CCC(=O)O)NC(=O)[C@H](C)NC(=O)[C@H](CC(C)C)NC(=O)[C@H](CCCNC(=N)N)NC(=O)[C@H](C)NC(=O)[C@@H](NC(=O)[C@H](CCC(N)=O)NC(=O)[C@H](C)NC(=O)[C@@H](NC(=O)[C@H](CO)NC(=O)[C@H](CC(C)C)NC(=O)[C@H](Cc1c[nH]cn1)NC(=O)[C@H](CO)NC(=O)[C@H](C)NC(C)=O)[C@@H](C)O)[C@@H](C)O)C(=O)N1CCC[C@H]1C(=O)N[C@@H](CO)C(=O)N[C@@H](CO)C(=O)N[C@H](C(=O)N[C@@H](CC(=O)O)C(=O)N[C@H](C(=O)NCC(=O)N1CCC[C@H]1C(=O)N[C@@H](CC(=O)O)C(=O)N[C@H](C(=O)N1CCC[C@H]1C(N)=O)[C@@H](C)O)C(C)C)[C@@H](C)O` [Compound 40, N^1-acetyl,N{Epsilon-25}-[(4S)-4-carboxy-4-(17-carboxyheptadecanoylamino)butanoyl]-[Ala1,Ser2,His3,Leu4,Ser5,Ala7,Gln8,Ala10,Glu14,His17,Asp21,Pro22,Lys25,Pro27,Asp31,Pro34,Asp35,Pro37]-human amylin] (Ac-ASHLSTAQTARLAEFLHHSSDPFGK([γGlu-C18 diacid])IPSSTDVGPDTP-NH2), the EC50 in experiment [1] is 1.38 pM; in experiment [2], 1.29 pM.
